In PMC9481570, “A small molecule antagonist of SMN disrupts the interaction between SMN and RNAP II” (Nature Communications, 2022):
Read-outs that look alike come from different tables or passages of the source.

Experiments:
[1] = biological target: T1, SMN Tudor domain (Homo sapiens, UniProt Q16637); assay: ITC binding to Tudor domain of SMN
T1 construct: SMN (aa 82–147); His (N, cleaved yes); made in house; host or cells: E. coli BL21 (DE3) Codon plus RIL
From the text: (§1) The coding DNA fragments of following Tudor domains were cloned into pET28-MHL vector: SMN (aa 82–147), UHRF1 (aa 126–285), SMNDC1 (aa 53–130), TDRD3 (aa 554–611), SND1 (aa 650–910), TDRD2 (aa 327–420), FXR1 (aa 2–132), PHF1 (aa 28–87), SGF29 (aa 115–293), JMJD2A (aa 897–1101), 53BP1 (aa 1483–1606), SETDB1 (aa 190–410), LBR (aa 1–67), ZGPAT (aa 120–271). The coding regions of chromodomain of CBX7 (aa 8–62), PWWP domain of DNMT3A (aa 275–417), WD40 repeats of WDR5 (aa 24–334) and CW domain of ZCWPW2 (aa 21–78) were also subcloned into pET28-MHL vector to generate N-terminally His-tagged fusion protein. The MBT repeats of L3MBTL1 (aa 200–522) and L3MBTL2 (aa 170–625) were subcloned into pET28GST-LIC vector to generate N-terminally GST-His-tagged fusion protein. All the plasmids were generated by ligase independent cloning (Vazyme Biotech, C112 or ABclonal Technology, RK21020). […] The proteins were further purified by Superdex75 or Superdex200 gel-filtration column (GE Healthcare) in a buffer containing 20 mM Tris-HCl, pH 7.5, 150 mM NaCl and 1 mM DTT. For crystallization experiments, purified proteins were concentrated to 18 mg/mL for SMN, 23 mg/mL for UHRF1 and 10 mg/mL for TDRD3 in the gel-filtration buffer. All the mutations were introduced with the QuikChange II XL site-directed mutagenesis kit (Stratagene, 200522) and confirmed by DNA sequencing. Mutant proteins were also expressed in E. coli BL21 (DE3) Codon plus RIL and purified using the same procedures described above. The molecular weight of all protein samples was measured by mass spectrometry.
(§2) For the ITC measurement, the concentrated proteins were diluted into 20 mM Tris-HCl, pH 7.5, 150 mM NaCl (ITC buffer); the lyophilized compounds were dissolved in the same buffer, and the pH value was adjusted by adding 2 M NaOH or 2 M HCl. The compounds that could not be dissolved in the ITC buffer were dissolved in DMSO with the accessible highest concentration. Compound concentrations were calculated from the mass and the volume of the solvent. For the ITC assay with compound dissolved in DMSO, the protein was diluted by ITC buffer containing same final concentration of DMSO. All measurements were performed in duplicate at 25 °C, using a VP-ITC (MicroCal, Inc.), an iTC-200 (MicroCal, Inc.), or a Nano-ITC (TA, Inc.) microcalorimeter. The protein with a concentration of 50–100 μM was placed in the cell chamber, and the compounds with a concentration of 0.5–2 mM in syringe was injected in 25, 20, or 20 successive injections with a spacing of 180, 150, or 120 s for VP-ITC, iTC-200, or Nano-ITC, respectively, as previously described[30]–[32]. iTC-200 or Nano-ITC data were consistent with those from the VP-ITC instrument, based on ITC results of SMN-compound 1 detected by using all the instruments. Control experiments were performed under identical conditions to determine the heat signals that arise from injection of the compounds into the buffer. Data were fitted using the single-site binding model within the Origin software 7.0 package (MicroCal, Inc.) or the independent model within the Nano-Analyze software package (TA, Inc.).

[2] = biological target: T2, UHRF1 tandem Tudor domain (TTD) (Homo sapiens, UniProt Q96T88); assay: ITC binding to tandem Tudor domain of UHRF1
T2 construct: UHRF1 (aa 126–285); His (N, cleaved yes); made in house; host or cells: E. coli BL21 (DE3) Codon plus RIL
T2 sequence (Q96T88 126-285): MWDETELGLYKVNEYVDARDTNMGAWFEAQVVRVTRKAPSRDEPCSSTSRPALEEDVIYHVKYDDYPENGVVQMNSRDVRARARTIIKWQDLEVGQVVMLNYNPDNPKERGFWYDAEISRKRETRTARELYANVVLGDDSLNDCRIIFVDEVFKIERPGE
From the text: as §1, §2

[3] = biological target: TDRD3 (Homo sapiens, UniProt Q9H7E2); assay: Biotin-Cmpd 1 pulldown from U2OS cell lysates and western blotting, TDRD3; assay type: binding; set-up: endogenous in cells; host or cells: U2OS; settings: U2OS cell lysate, 20 μM biotin-Cmpd 1 (Fig. 2c, Supplementary Fig. 6)
Method: (§3) U2OS cells were lysed in RIPA buffer (140 mM NaCl, 10 mM Tris-HCl, pH 7.6, 1% Triton, 0.1% sodium deoxycholate, 1 mM EDTA) containing protease inhibitors (Roche, 05892791001). The cell lysate was incubated with 20 μM biotin-Cmpd 1 overnight at 4 °C, then 30 μL streptavidin beads (Thermo Fisher, 20353) was added and incubated at 4 °C for 1 h. The beads were then washed with RIPA buffer for 3 times, 10 min/time and loading buffer was added and boiled for 5 min for elution. The eluted samples were separated by SDS-PAGE for western blotting (SMN monoclonal antibody, BD Transduction Laboratories, 610646, clone No. 8, dilution of 1:1000; TDRD3 rabbit monoclonal antibody, Cell signaling, 5492, clone No. 5492, dilution of 1:1000; SND1 polyclonal antibody, Bethyl, A302-883A, dilution of 1:2000; RFP polyclonal antibody, Abcam, ab62341, dilution of 1:1000; GFP monoclonal antibody, Santa Cruz Biotechnology, sc-9996, dilution of 1:1000; Streptavidin-Horseradish Peroxidase (HRP), Invitrogen, SA10001, dilution of 1:5000) as previously described[52],[53]. For the competition analysis, 200 μM biotin-free compound 1 or compound 15 was added at the same time when the biotin-Cmpd 1 was incubated with the cell lysates.

[4] = biological target: T3, SND1 (Homo sapiens, UniProt Q7KZF4); assay: Biotin-Cmpd 1 pulldown from U2OS cell lysates and western blotting, SND1; assay type: binding; settings: U2OS cell lysate, 20 μM biotin-Cmpd 1 (Fig. 2c, Supplementary Fig. 6)
T3 construct: endogenous in cells; host or cells: U2OS
Method: as §3

[5] = biological target: T4, SMN (Homo sapiens, UniProt Q16637); assay: Biotin-Cmpd 1 pulldown from U2OS cell lysates and western blotting, SMN; assay type: binding; settings: U2OS cell lysate, 20 μM biotin-Cmpd 1, overnight 4 °C (Fig. 2c, Supplementary Fig. 6)
T4 construct: endogenous in cells; host or cells: U2OS
Method: as §3

[6] = test system: SMN cage mutants; assay: Biotin-Cmpd 1 pulldown from U2OS cell lysates, SMN cage mutants; assay type: binding, human; settings: U2OS cell lysate, 20 μM biotin-Cmpd 1 (Fig. 2d)
Method: as §3

[7] = biological target: R1810me2s-POLR2A (Homo sapiens) (UniProt P24928); settings: cited from earlier work
[8] = ITC, Tudor domain of SMN wild type, 25 °C, read-out: Kd (SMN)
[9] = ITC, Tudor domain of SMN wild type, 25 °C
[10] = Supplementary Fig. 12, read-out: Kd, binding affinity (determined by ITC) of different compounds to SMN

Chain of TDRD3 (Q9H7E2 whole entry): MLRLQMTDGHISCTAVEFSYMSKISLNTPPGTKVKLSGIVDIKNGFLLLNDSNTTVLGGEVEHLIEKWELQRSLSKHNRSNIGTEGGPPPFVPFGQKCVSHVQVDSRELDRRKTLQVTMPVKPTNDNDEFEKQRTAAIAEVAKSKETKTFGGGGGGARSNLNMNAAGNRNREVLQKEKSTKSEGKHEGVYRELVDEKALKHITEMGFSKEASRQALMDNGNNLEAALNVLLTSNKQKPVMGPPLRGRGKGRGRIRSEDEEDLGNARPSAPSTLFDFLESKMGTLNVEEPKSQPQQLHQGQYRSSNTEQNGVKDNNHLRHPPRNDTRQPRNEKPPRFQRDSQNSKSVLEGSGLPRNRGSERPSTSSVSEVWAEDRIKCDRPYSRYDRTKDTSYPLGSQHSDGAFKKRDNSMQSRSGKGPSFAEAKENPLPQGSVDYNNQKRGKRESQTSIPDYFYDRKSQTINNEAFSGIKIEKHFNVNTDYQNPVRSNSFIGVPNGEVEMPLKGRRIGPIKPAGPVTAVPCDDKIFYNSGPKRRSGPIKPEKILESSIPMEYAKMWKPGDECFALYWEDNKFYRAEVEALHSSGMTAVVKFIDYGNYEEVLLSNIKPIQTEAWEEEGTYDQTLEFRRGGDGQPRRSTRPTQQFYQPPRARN
T3 sequence (Q7KZF4 whole entry): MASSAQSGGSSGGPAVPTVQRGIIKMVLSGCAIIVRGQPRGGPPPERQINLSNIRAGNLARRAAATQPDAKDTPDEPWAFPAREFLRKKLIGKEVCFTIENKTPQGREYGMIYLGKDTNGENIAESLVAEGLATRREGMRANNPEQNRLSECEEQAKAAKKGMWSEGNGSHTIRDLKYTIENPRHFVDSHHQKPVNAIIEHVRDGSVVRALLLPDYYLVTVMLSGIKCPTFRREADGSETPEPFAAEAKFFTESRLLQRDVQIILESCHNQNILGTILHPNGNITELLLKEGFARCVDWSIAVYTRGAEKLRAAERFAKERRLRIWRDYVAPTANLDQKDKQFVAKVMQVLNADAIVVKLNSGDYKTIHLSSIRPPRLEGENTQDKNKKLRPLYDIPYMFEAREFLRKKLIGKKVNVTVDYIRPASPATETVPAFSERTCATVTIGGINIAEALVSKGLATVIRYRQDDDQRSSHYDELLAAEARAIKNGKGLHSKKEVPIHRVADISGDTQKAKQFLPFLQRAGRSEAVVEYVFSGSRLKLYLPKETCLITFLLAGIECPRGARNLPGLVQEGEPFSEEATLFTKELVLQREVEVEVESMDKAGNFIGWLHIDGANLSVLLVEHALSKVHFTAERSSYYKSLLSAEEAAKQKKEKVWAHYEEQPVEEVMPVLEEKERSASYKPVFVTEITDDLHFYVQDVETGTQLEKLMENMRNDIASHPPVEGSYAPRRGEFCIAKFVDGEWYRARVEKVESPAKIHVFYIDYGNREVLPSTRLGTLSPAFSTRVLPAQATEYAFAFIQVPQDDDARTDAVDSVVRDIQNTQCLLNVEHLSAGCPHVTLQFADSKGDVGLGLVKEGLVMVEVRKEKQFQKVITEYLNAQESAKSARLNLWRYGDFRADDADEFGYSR

Compound	Kd (UHRF1) [2]	Kd (SMN) [1, 9]	Kd [1, 10] [µM]	further results
CCOC(=O)Cn1c2c(c(=N)c3c1CCC3)CCC2 [Compound 3, ethyl 2-(8-imino-2,3,5,6,7,8-hexahydrodicyclopenta[b,e]pyridin-4(1H)-yl)acetate]	No binding	–	–	Kd [1, 8]: 31 ± 2 µM
N=c1c2c(n(Cc3ccc(F)cc3)c3c1CCC3)CCC2 [Compound 4, 4-(4-fluorobenzyl)-2,3,4,5,6,7-hexahydrodicyclopenta[b,e]pyridin-8(1H)-imine]	No binding	–	–	Kd [1, 8]: 13 ± 1 µM
Nc1cccc2cccnc12 [Compound 8, quinolin-8-amine]	No binding	No binding	–	Kd [1]: > 244 µM
CN[C@@H]1CCc2ccccc21 [Compound 9, (R)-N-methyl-2,3-dihydro-1H-inden-1-aminium]	No binding	No binding	> 244	–
NC[C@H]1CCc2ccccc21 [Compound 11, (S)-(2,3-dihydro-1H-inden-1-yl)methanaminium]	No binding	No binding	> 244	–
CCN(CC)c1ccc(C(=N)N)cc1 [Compound 18, 4-(diethylamino)benzimidamide]	No binding	No binding	> 244	–
N=c1c2c(n(CC(=O)NCCOCCOCCOCCNC(=O)CCCC[C@@H]3SC[C@@H]4NC(=O)N[C@@H]43)c3c1CCC3)CCC2 [biotin-Cmpd 1]	–	–	–	Kd ([1]; Supplementary Figs. 2, 4 and 11a (VP-ITC), read-out: Kd, ITC binding curve, Tudor domain of SMN): 87 ± 12 µM; pulldown of TDRD3 from cell lysates [3]: neither TDRD3 nor SND1 could be detected; pulldown of SND1 from cell lysates [4]: neither TDRD3 nor SND1 could be detected; pulldown of SMN from cell lysates [5]: efficiently captured; pulldown of SMN from cell lysates ([5]; listed as Biotin-Cmpd 1): selectively chemiprecipates SMN; pulldown of SMN cage mutants from cell lysates [6]: could not efficiently pull down
SMN Tudor (from UniProt Q16637)	–	–	–	Kd [7]: 175 µM

More lines, main results first:

Kd (UHRF1) [2]	Kd (SMN) [1, 9]	Kd [1, 10] [µM]	Compound	further results
No binding	–	–	CCCCc1c(CCC)c(=N)c2ccccc2n1C [Compound 5, 2-butyl-1-methyl-3-propylquinolin-4(1H)-imine]	Kd [1, 8]: 12 ± 1 µM
Weak binding	–	–	Cc1cc(=N)c2ccccc2n1C [Compound 6, 1,2-dimethylquinolin-4(1H)-imine]	Kd [1, 8]: 12 ± 2 µM
No binding	No binding	> 244	Nc1cccc2ocnc12 [Compound 7, benzo[d]oxazol-4-amine]	–
No binding	No binding	> 244	C[C@H]1Cc2ccccc2[C@@H]1N [Compound 10, (1R,2S)-2-methyl-2,3-dihydro-1H-inden-1-aminium]	–
No binding	No binding	> 244	Nc1cccc2ccsc12 [Compound 12, benzo[b]thiophen-7-amine]	–
No binding	No binding	> 244	C[C@H]1CCc2ccccc2[C@@H]1N [Compound 13, (1R,2S)-2-methyl-1,2,3,4-tetrahydronaphthalen-1-aminium]	–
No binding	No binding	> 244	C[C@H]1CC[C@@H](N)c2ccccc21 [Compound 14, (1R,4S)-4-methyl-1,2,3,4-tetrahydronaphthalen-1-aminium]	–
No binding	No binding	> 244	CN1CC[C@H](N)c2ccccc21 [Compound 15, (S)-1-methyl-1,2,3,4-tetrahydroquinolin-4-aminium]	–
No binding	No binding	> 244	CN1CC[C@H](CN)c2ccccc21 [Compound 16, (S)-(1-methyl-1,2,3,4-tetrahydroquinolin-4-yl)methanaminium]	–
No binding	No binding	> 244	N=C(N)N1CCC(Cc2ccccc2)CC1 [Compound 17, 4-benzylpiperidine-1-carboximidamide]	–
No binding	No binding	> 244	N=C(N)c1ccc(N)cc1 [Compound 19, 4-aminobenzimidamide]	–
No binding	No binding	> 244	Cn1ccc(=N)cc1 [Compound 20, 1-methylpyridin-4(1H)-imine]	–
